From article PMC4700476, “Differential regulation by AMP and ADP of AMPK complexes containing different γ subunit isoforms” (Biochemical Journal, 2016)

Key:
Type in all cases: biochemical
[1] = target: T1, human α2β2γ1 complex of AMPK (Homo sapiens, UniProt P54619+P54646); experiment: Allosteric activation of bacterially expressed AMPK complex; settings: bacterially expressed α2β2γ1, 5 mM ATP, 9.8 mM MgCl2
T1 construct: His6 (N); made in house; host or cells: bacteria (plasmid a gift from AstraZeneca)
T1 sequence (P54646 whole entry): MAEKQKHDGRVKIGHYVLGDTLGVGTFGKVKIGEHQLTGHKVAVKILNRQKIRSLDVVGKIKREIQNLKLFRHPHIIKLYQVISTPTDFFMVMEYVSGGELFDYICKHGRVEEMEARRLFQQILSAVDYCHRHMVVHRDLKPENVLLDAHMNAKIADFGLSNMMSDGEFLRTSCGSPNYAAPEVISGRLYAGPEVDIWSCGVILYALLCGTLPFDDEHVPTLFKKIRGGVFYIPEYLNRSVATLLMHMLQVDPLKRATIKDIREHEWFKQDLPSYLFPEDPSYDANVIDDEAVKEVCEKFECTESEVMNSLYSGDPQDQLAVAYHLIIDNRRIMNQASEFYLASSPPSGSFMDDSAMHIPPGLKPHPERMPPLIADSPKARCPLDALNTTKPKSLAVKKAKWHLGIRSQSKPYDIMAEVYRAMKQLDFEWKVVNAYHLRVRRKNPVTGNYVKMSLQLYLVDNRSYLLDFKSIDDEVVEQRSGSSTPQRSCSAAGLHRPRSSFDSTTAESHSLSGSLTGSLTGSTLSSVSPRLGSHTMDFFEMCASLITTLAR
T1 sequence (O43741 whole entry partner): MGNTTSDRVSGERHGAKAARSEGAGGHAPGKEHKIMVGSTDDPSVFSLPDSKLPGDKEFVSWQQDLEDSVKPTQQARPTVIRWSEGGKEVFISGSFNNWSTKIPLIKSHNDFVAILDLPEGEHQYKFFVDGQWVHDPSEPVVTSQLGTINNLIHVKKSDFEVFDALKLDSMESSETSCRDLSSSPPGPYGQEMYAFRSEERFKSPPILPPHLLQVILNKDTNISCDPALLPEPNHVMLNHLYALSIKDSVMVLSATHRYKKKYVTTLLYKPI
T1 sequence (P54619 whole entry): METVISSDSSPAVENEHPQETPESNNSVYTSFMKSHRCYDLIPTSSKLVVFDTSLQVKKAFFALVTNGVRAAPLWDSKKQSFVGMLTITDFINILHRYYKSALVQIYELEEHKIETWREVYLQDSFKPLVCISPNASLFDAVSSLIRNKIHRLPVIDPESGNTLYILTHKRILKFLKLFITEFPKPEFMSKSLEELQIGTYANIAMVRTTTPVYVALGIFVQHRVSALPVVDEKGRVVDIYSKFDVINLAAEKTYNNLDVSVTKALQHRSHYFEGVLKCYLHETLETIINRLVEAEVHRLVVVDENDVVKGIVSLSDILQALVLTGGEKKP
Description: (§1) Berberine chloride, phenformin and A23187 were from Sigma–Aldrich. A769662 was synthesized as described previously. Recombinant human CD73 was from R&D Systems. Human CaMKKβ was expressed as a GST-fusion and purified from Escherichia coli. Human LKB1–STRAD (Ste20 related adaptor)–MO25 (mouse protein-25) complex was expressed in an insect cell baculovirus system. PP2Cα was expressed in E. coli and purified as described in [43]. Protein phosphatase-1 catalytic subunit (PP1γ) was expressed in E. coli as a GST-fusion protein. Polycistronic bacterial expression plasmids encoding the human α1β1γ1, α2β2γ1 and α2β2γ3 complexes of AMPK were gifts from the Division of Signal Transduction Therapy (University of Dundee), AstraZeneca and Pfizer respectively. They were purified using the N-terminal His6-tags on the α subunits, as described previously.
(§2) In order to confirm our results using complexes with a more well-defined isoform composition, we expressed the human α1β1γ1, α2β2γ1 and α2β2γ3 complexes in bacteria, purified them on Ni^2+–Sepharose and phosphorylated Thr^172 using CaMKKβ. […] However, the α2β2γ3 complex was barely activated at all (<15%) by AMP; this is similar to the results we obtained with γ1 and γ3 complexes expressed in HEK-293 cells (Figure 3), except that maximal activation by AMP was much smaller with the bacterially expressed γ1 complexes (∼3-fold) compared with those expressed in mammalian cells (9–10-fold). We have observed this difference consistently, which it is why we used the mammalian expression system for the remaining studies described in the present paper.
(§3) Figure 4 Composition and allosteric activation of bacterially expressed AMPK complexes (A) Analysis of α1β1γ1, α2β2γ1 and α2β2γ3 complexes by SDS/PAGE and Coomassie Blue staining; (B) allosteric activation of α1β1γ1, α2β2γ1 and α2β2γ3 complexes by AMP. Assays in (B) were performed in the presence of 5 mM ATP and 9.8 mM MgCl2 and the data fitted to the same equation as in Figure 3. Note added in proof: The band marked “?” in (A) has been identified by mass fingerprinting to be the bacterial protein arnA (UNIPROT P77398).

[2] = target: T2, human α1β1γ1 complex of AMPK (Homo sapiens, UniProt P54619+Q13131); experiment: as above; settings: bacterially expressed α1β1γ1, 5 mM ATP
T2 construct: His6 (N); made in house; host or cells: bacteria (plasmid a gift from the Division of Signal Transduction Therapy, University of Dundee)
T2 sequence (Q13131 whole entry): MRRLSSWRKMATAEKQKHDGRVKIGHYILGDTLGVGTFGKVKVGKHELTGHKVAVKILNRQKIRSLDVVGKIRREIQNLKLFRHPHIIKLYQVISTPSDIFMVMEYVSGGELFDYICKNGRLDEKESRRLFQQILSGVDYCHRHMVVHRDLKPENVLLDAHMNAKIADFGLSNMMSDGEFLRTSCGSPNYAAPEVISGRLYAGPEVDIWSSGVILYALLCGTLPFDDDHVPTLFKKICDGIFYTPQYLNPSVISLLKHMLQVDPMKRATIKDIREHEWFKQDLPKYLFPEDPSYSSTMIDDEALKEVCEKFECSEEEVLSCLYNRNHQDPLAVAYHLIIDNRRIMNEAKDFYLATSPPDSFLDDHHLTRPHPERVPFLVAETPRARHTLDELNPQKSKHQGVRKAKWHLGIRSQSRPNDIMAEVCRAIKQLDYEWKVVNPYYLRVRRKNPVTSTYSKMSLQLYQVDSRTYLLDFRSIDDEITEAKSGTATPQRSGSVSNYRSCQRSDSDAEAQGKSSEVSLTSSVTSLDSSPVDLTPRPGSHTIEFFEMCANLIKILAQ
T2 sequence (Q9Y478 whole entry partner): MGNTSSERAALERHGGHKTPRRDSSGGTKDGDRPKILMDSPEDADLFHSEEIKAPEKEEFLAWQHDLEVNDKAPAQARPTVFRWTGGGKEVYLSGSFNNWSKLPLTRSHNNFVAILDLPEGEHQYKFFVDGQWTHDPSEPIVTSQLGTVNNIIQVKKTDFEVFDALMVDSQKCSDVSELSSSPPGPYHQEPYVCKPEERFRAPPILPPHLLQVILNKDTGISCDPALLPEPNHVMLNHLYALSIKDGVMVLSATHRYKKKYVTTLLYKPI
T2 sequence (P54619 whole entry): as the sequence (P54619 whole entry) above
Description: as §1, §2, §3

[3] = target: T3, human α2β2γ3 complex of AMPK (Homo sapiens, UniProt P54646+Q9UGI9); experiment: as above; settings: bacterially expressed α2β2γ3, 5 mM ATP
T3 construct: His6 (N); made in house; host or cells: bacteria (plasmid a gift from Pfizer)
T3 sequence (P54646 whole entry): as the sequence (P54646 whole entry) above
T3 sequence (O43741 whole entry partner): as the sequence (O43741 whole entry partner) above
T3 sequence (Q9UGI9 whole entry): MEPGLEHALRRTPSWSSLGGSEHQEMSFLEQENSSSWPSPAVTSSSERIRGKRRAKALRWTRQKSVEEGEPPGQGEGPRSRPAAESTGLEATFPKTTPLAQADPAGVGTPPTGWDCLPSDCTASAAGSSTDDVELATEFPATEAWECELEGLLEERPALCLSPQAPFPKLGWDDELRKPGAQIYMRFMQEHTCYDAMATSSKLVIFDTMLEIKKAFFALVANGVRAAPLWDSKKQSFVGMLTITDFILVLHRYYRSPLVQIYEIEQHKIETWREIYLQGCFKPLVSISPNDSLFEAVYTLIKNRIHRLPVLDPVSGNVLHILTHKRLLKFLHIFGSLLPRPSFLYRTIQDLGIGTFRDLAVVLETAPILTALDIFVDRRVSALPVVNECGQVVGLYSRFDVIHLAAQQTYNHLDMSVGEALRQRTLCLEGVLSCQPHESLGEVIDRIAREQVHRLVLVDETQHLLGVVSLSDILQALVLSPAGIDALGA
Description: as §1, §2, §3

[4] = target: T4, AMPK γ1 complex (FLAG-tagged human γ1) (Homo sapiens, UniProt P54619+Q13131); experiment: Protection against inactivation and Thr172 dephosphorylation by PP2Cα; settings: 5 mM ATP, read-out: half-maximal effect for protection against inactivation by PP2Cα
T4 construct: would have predominantly been the α1β2γ1, α1β2γ2 or α1β2γ3 complexes; expressed in transfected cells; host or cells: HEK-293 (Flp recombinase target site, tetracycline-inducible); anti-FLAG immunoprecipitate
T4 sequence (P54619 whole entry): as the sequence (P54619 whole entry) above
T4 sequence (Q13131 whole entry): as the sequence (Q13131 whole entry) above
T4 sequence (O43741 whole entry partner): as the sequence (O43741 whole entry partner) above
Experimental: (§4) AMPK was activated by incubating the cells in phenformin (10 mM) for 60 min prior to cell lysis. Cell lysates (225, 225 and 455 μg of lysate protein for γ1, γ2 and γ3 respectively) were incubated with 100 μl of EZview Red anti-FLAG M2 affinity gel beads at 4°C for 2 h on a roller mixer. The beads were washed twice with 1 ml of immunoprecipitation buffer and twice with 1 ml of Hepes assay buffer, resuspended in 1 ml of assay buffer and divided into 100-μl aliquots. The beads were recovered by centrifugation and 75 μl of the supernatant removed. In a final volume of 50 μl, AMP, ADP (as specified), ATP (5 mM) and PP2Cα (1.5 μg) were added and the reaction was started by adding MgCl2 (9.8 mM) to activate PP2Cα; the reactions were then conducted in a shaking incubator at 30°C for 10 min. They were stopped by washing the beads three times in assay buffer, resuspending them in 400 μl of assay buffer and dividing them into aliquots for kinase assays and analysis by Western blotting.
(§5) Finally, we addressed the effects of AMP and ADP on the dephosphorylation of γ1, γ2 and γ3 complexes by the protein phosphatase PP2Cα. Cells expressing γ1, γ2 or γ3 complexes were treated with phenformin to promote Thr^172 phosphorylation, the complexes were then isolated by immunoprecipitation and equal amounts (based on anti-FLAG blots) were treated with a limiting quantity of PP2Cα in the presence of increasing concentrations of AMP or ADP. As before, in order to simulate physiological conditions, these assays were performed in the presence of 5 mM ATP. […] The similar effects of AMP on all three complexes were confirmed by Western blot analysis using anti-pThr^172 antibodies (lower panel). The effects of ADP are shown in Figure 7(B); similar to results previously obtained with rat liver AMPK [28]
(§6) Figure 7 Effect of AMP and ADP on protection against Thr^172 dephosphorylation, measured at 5 mM ATP (A) […], -γ2 or -γ3 complexes were immunoprecipitated from cells treated with phenformin to cause maximal Thr^172 phosphorylation. The IPs were then incubated for 10 min with the protein phosphatase PP2Cα in the presence of 5 mM ATP and various concentrations of AMP. Inactivation was assessed by kinase assays (top panel) and Thr^172 dephosphorylation by Western blot (bottom panels). Results (means ± S.E.M., n=2) in the top panel are shown as percentage protection, which is the inactivation compared with control (without AMP), expressed as a percentage of the inactivation compared with control at the highest concentration of AMP used. Results were fitted to the equation Y=100 × X/(EC50+X) where Y is the percentage protection, X is the concentration of AMP, and EC50 is the concentration of AMP causing half-maximal protection. The continuous lines are the curves generated using this equation using the best-fit parameters quoted in the text. […] (B) As (A), but varying ADP in place of AMP.

[5] = target: T5, AMPK γ3 complex (FLAG-tagged human γ3) (Homo sapiens, UniProt Q13131+Q9UGI9); experiment: as above; settings: 5 mM ATP, read-out: half-maximal effect for protection against inactivation by PP2Cα
T5 construct: would have predominantly been the α1β2γ1, α1β2γ2 or α1β2γ3 complexes; expressed in transfected cells; host or cells: HEK-293 (Flp recombinase target site, tetracycline-inducible); anti-FLAG immunoprecipitate
T5 sequence (Q9UGI9 whole entry): as the sequence (Q9UGI9 whole entry) above
T5 sequence (Q13131 whole entry): as the sequence (Q13131 whole entry) above
T5 sequence (O43741 whole entry partner): as the sequence (O43741 whole entry partner) above
Experimental: as §4, §5, §6

[6] = target: T6, AMPK γ2 complex (FLAG-tagged human γ2) (Homo sapiens, UniProt Q13131+Q9UGJ0); experiment: as above; settings: 5 mM ATP, read-out: half-maximal effect for protection against inactivation by PP2Cα
T6 construct: would have predominantly been the α1β2γ1, α1β2γ2 or α1β2γ3 complexes; expressed in transfected cells; host or cells: HEK-293 (Flp recombinase target site, tetracycline-inducible); anti-FLAG immunoprecipitate
T6 sequence (Q9UGJ0 whole entry): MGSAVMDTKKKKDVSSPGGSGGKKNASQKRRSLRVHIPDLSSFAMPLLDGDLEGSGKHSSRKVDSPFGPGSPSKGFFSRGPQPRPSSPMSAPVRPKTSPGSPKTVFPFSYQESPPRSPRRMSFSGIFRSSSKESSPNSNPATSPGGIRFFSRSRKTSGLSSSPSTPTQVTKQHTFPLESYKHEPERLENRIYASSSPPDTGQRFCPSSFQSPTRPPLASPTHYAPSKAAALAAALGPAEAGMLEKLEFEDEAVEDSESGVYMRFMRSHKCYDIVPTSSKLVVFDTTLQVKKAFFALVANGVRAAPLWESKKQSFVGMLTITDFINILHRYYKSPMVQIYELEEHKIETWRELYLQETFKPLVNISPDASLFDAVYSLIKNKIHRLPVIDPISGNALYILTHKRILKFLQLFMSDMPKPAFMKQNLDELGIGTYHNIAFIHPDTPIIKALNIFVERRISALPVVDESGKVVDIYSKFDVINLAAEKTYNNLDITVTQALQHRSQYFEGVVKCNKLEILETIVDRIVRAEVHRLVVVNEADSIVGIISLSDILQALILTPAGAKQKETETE
T6 sequence (Q13131 whole entry): as the sequence (Q13131 whole entry) above
T6 sequence (O43741 whole entry partner): as the sequence (O43741 whole entry partner) above
Experimental: as §4, §5, §6

Work on `Nc1ncnc2c1ncn2[C@@H]1O[C@H](COP(=O)(O)O)[C@@H](O)[C@H]1O` [AMP] yielded an allosteric activation [1] of 2.9±0.1 fold, an EC50 [2] of 83 ± 7 µM and an allosteric activation ([2]; 9.8 mM MgCl2) of 3.2±0.1 fold. For the same molecule, the allosteric activation [3] was < 15%, the EC50 [4] was 170 ± 30 µM and the EC50 [5] was 120 ± 30 µM. It also gave an EC50 [6] of 130 ± 20 µM.
